Measurements: patent publication US10897903B2, “Method for controlling PPO resistant weeds” (BASF SE, priority 2016, dated 2021)

Assays:
[1] = system: w.2 AMATU Amaranthus tuberculatus, tall waterhemp, PPO resistant biotype 1 that does not contain the ΔG210 mutation; format: in vivo; settings: summary of Example 3 table
[2] = system: w.3 AMATU Amaranthus tuberculatus, tall waterhemp, PPO resistant biotype 2 that does not contain the ΔG210 mutation; format: in vivo; settings: summary of Example 3 table

## C#CCN1C(=O)C(F)(F)Oc2cc(F)c(-n3c(=O)n(C)c(=S)n(C)c3=O)cc21 [I.a.35]
[1]
  activity in words on PPO resistant weed w.2: very good activity
[2]
  activity in words on PPO resistant weed w.3: very good activity
